Data reported in patent US10660333B2, “Substituted 2-heterocyclylimidazolylcarboxamides as pesticides” (BAYER CROPSCIENCE AKTIENGESELLSCHAFT, priority 2016, dated 2020).
Where two headings read alike, the source gives them in different places.

Experiments:
Myzus persicae [1] = assay: Myzus persicae - oral test (MYZUPE O), comparison with prior art; type: in vivo; details: Myzus persicae, po, 120 h, 5 dat, read-out: % efficacy
Experimental: Myzus persicae—Oral Test (MYZUPE O)
(§1) To produce a suitable active ingredient formulation, 1 part by weight of active ingredient is dissolved with the specified parts by weight of solvent and made up to the desired concentration with water.
(§2) 50 μl of the active ingredient formulation are transferred into microtitre plates and made up to a final volume of 200 μl with 150 μl of IPL41 insect medium (33%+15% sugar). Subsequently, the plates are sealed with parafilm, which a mixed population of green peach aphids (Myzus persicae) within a second microtitre plate is able to puncture and imbibe the solution.
(§3) After the desired period of time, the efficacy in % is determined. 100% means that all the aphids have been killed; 0% means that no aphids have been killed.

[2] = log P by HPLC on reversed-phase (C18) columns, OECD Guideline 117; type: physicochemical; details: for chromatographic logP: reversed-phase (C18) HPLC column
Boophilus microplus = Boophilus microplus - injection test; type: in vivo; details: 20 μg/animal, injection into engorged adult female cattle ticks, after 7 days
Experimental: Boophilus microplus—Injection Test
Solvent: Dimethyl Sulphoxide
To produce a suitable active ingredient formulation, 10 mg of active ingredient are mixed with 0.5 ml of solvent and the concentrate is diluted to the desired concentration with solvent.
1 μl of the active ingredient solution is injected into the abdomen of 5 engorged adult female cattle ticks (Boophilus microplus). The animals are transferred into dishes and kept in a climate-controlled room.
Efficacy is assessed after 7 days by laying of fertile eggs. Eggs which are not visibly fertile are stored in a climate-controlled cabinet until the larvae hatch after about 42 days. An efficacy of 100% means that none of the ticks has laid any fertile eggs; 0% means that all the eggs are fertile.

Myzus persicae [3] = assay: Myzus persicae - drench test (MYZUPE D), savoy cabbage; type: in vivo; details: Myzus persicae, soil, 240 h, 10 dat, read-out: % efficacy
Experimental: Myzus persicae—Drench Test (MYZUPE D)
To produce a suitable active ingredient formulation, 1 part by weight of active ingredient is mixed with the specified amounts of solvent and emulsifier, and the concentrate is diluted with water to the desired concentration, it being necessary to include the volume of soil which is drenched in the calculation. It should be ensured that a concentration of 40 ppm of emulsifier in the soil is not exceeded. To produce further test concentrations, water is used for dilution.
Savoy cabbage (Brassica oleracea) in pots with soil and infested by all stages of the green peach aphid (Myzus persicae) is watered with an active ingredient formulation of the desired concentration.
as §3

Myzus persicae [4] = assay: Myzus persicae - spray test; type: in vivo; details: 500 g/ha, Chinese cabbage leaf discs, after 5 days; for pest or weed control at 500 g/ha: Myzus persicae, foliar, 120 h, read-out: efficacy (aphids killed)
Experimental: Myzus persicae—Spray Test
(§4) To produce a suitable active ingredient formulation, 1 part by weight of active ingredient is dissolved with the specified parts by weight of solvent and made up to the desired concentration with water containing an emulsifier concentration of 1000 ppm. To produce further test concentrations, the formulation is diluted with emulsifier-containing water.
(§5) Discs of Chinese cabbage leaves (Brassica pekinensis) infested by all stages of the green peach aphid (Myzus persicae) are sprayed with an active ingredient formulation of the desired concentration.
(§6) After 5 days, the efficacy in % is determined. 100% means that all the aphids have been killed; 0% means that no aphids have been killed.

Myzus persicae [5] = assay: Myzus persicae - spray test (MYZUPE), comparison with prior art; type: in vivo; details: Myzus persicae, 120 h, 5 dat, read-out: % efficacy; for Emax at 100 g/ha: 100 g/ha (g of ai/ha); for Emax at 20 g/ha: 20 g/ha (g of ai/ha); for Emax at 4 g/ha: 4 g/ha (g of ai/ha)
Experimental: Myzus persicae—Spray Test (MYZUPE)
as §4, §5, §3

Aphis gossypii = Aphis gossypii - spray test (APHIGO S), cotton plants; type: in vivo; details: 144 h, 6 dat, read-out: % efficacy
Experimental: Aphis gossypii—Spray Test (APHIGO S)
(§7) To produce a suitable active ingredient formulation, 1 part by weight of active ingredient is dissolved with the specified parts by weight of solvent and made up to the desired concentration with water containing an emulsifier concentration of 1000 ppm. To produce further test concentrations, the formulation is diluted with emulsifier-containing water. If the addition of ammonium salts or/and penetrants is required, these are each added in a concentration of 1000 ppm to the formulation solution.
Cotton plants (Gossypium hirsutum) heavily infested by the cotton aphid (Aphis gossypii) are sprayed with an active ingredient formulation of the desired concentration.
After the desired time, the kill in % is determined. 100% means that all the aphids have been killed; 0% means that no aphids have been killed.

Myzus persicae [6] = assay: Myzus persicae - spray test (MYZUPE S), bell pepper plants; type: in vivo; details: Myzus persicae, 144 h, 6 dat, read-out: % efficacy
Experimental: Myzus persicae—Spray Test (MYZUPE S)
as §7
Bell pepper plants (Capsicum annuum) severely infested with the green peach aphid (Myzus persicae) are treated by spraying with the active ingredient formulation in the desired concentration.
After the desired time, the kill in % is determined. 100% means that all the animals have been killed; 0% means that no animals have been killed.

Myzus persicae [7] = assay: Myzus persicae - oral test; type: in vivo; details: 4 ppm, oral, after 5 days; for pest or weed control at 4 ppm: Myzus persicae, 120 h, read-out: efficacy (aphids killed)
Experimental: as §1, §2, §6

Tetranychus urticae = Tetranychus urticae - spray test, OP-resistant; type: in vivo; details: 500 g/ha, bean leaf discs, after 6 days
Experimental: Tetranychus urticae—Spray Test, OP-Resistant
as §4
Discs of bean leaves (Phaseolus vulgaris) infested with all stages of the greenhouse red spider mite (Tetranychus urticae) are sprayed with an active ingredient formulation of the desired concentration.
After 6 days, the efficacy in % is determined. 100% means that all the spider mites have been killed; 0% means that no spider mites have been killed.

[8] = HPLC RP C18, acidic range pH 2.7, 0.1% formic acid/acetonitrile, read-out: logP[a]
[9] = HPLC RP C18, neutral range pH 7.8, ammonium hydrogencarbonate/acetonitrile, read-out: logP[n]
[10] = HPLC RP C18, acidic range pH 2.7, 0.1% formic acid/acetonitrile
[11] = HPLC RP C18, neutral range pH 7.8, ammonium hydrogencarbonate/acetonitrile

Row | Compound | Emax at 0.8 ppm (Myzus persicae [1]) | Emax at 4 ppm (Myzus persicae [1]) | chromatographic logP [2, 8] | chromatographic logP [2, 9] | efficacy (laying of fertile eggs) (Boophilus microplus) | Emax at 0.16 ppm (Myzus persicae [3]) | Emax at 0.8 ppm (Myzus persicae [3]) | pest or weed control at 500 g/ha (Myzus persicae [4]) | Emax at 100 g/ha (Myzus persicae [5]) | Emax at 500 g/ha (Myzus persicae [5]) | Emax at 0.16 ppm (Aphis gossypii) | Emax at 0.8 ppm (Aphis gossypii) | Emax at 0.16 ppm (Myzus persicae [6]) | Emax at 0.8 ppm (Myzus persicae [6]) | pest or weed control at 4 ppm (Myzus persicae [7]) | efficacy (aphids killed) (Myzus persicae [4]) | efficacy (aphids killed) (Myzus persicae [7]) | Emax at 20 g/ha (Myzus persicae [5]) | further results
1 | CN(C(=O)c1cnc(C2CC(c3ccccc3)=NO2)n1C)c1cccnc1 (centres unmarked) [Example I-1-7] | 100% | 100% | 1.45 | 1.72 | 80% | 80% | 90% | 90% | 90% | 90% | 50% | 100% | 95% | 100% | 100% |  |  |  | 
2 | CN(C(=O)c1cnc(C2CC(c3ccc([N+](=O)[O-])cc3)=NO2)n1C)c1cccnc1 (centres unmarked) [Example I-1-24] |  |  |  |  |  |  |  |  |  |  |  |  |  |  |  | 90% | 100% |  | efficacy (spider mites killed) (Tetranychus urticae): 100%; logP[a] ([2]; pH 2.7): 1.64; logP[n] ([2]; pH 7.8): 1.84
3 | CN(C(=O)c1cnc(C2CC(c3ccc(C(F)(F)F)cc3)=NO2)n1C)c1cccnc1 (centres unmarked) [Example I-1-23] |  |  |  |  |  |  |  |  |  |  |  |  |  |  |  | 90% | 100% |  | efficacy (spider mites killed) (Tetranychus urticae): 100%; logP[a] [2, 10]: 2.18; logP[n] [2, 11]: 2.37
4 | CN(C(=O)c1cnc(C2CC=NO2)n1C)c1cccnc1 (centres unmarked) [Example I-1-30] | 100% | 90% | 0.1 | 0.57 |  | 95% | 95% | 90% | 70% | 90% |  | 80% | 95% | 100% | 90% |  |  | 70% | 
5 | CN(C(=O)c1cnc(C2CC(c3cccc(C#N)c3)=NO2)n1C)c1cccnc1 (centres unmarked) [Example I-1-19, 2-[3-(3-Cyanophenyl)-4,5-dihydro-1,2-oxazol-5-yl]-N,1-dimethyl-N-(pyridin-3-yl)-1H-imidazole-5-carboxamide] |  |  | 1.39 | 1.63 | 95% |  |  | 100% |  |  |  |  |  |  | 100% |  |  |  | 
6 | CN(C(=O)c1cnc(C2CC(C(F)(F)F)=NO2)n1C)c1cccnc1 (centres unmarked) [Example I-1-32] | 100% | 100% | 1.45 | 1.59 |  | 90% | 99% | 90% |  | 90% | 90% | 97% | 20% | 96% | 100% |  |  |  | 
7 | CN(C(=O)c1cnc(C2CC(c3ccncc3)=NO2)n1C)c1cccnc1 (centres unmarked) [Example I-1-28] |  |  |  |  | 80% |  |  |  |  |  |  |  |  |  |  | 90% | 100% |  | logP[a] [2, 10]: 0.54; logP[n] [2, 11]: 1.11
8 | CC1=NOC(c2ncc(C(=O)N(C)c3cccnc3)n2C)C1 (centres unmarked) [Example I-1-1] | 100% | 100% | 0.27 | 0.76 |  | 100% | 100% | 100% | 70% | 100% | 100% | 100% | 100% | 95% | 100% |  |  | 70% | Emax at 4 g/ha (Myzus persicae [5]): 70%
9 | CN(C(=O)c1cnc(C2CC(c3ccccn3)=NO2)n1C)c1cccnc1 (centres unmarked) [Example I-1-26] | 100% | 100% | 1.01 | 1.27 |  | 95% | 98% | 90% | 90% | 90% |  | 100% | 100% | 100% | 100% |  |  | 90% | 
10 | CN(C(=O)c1cnc(C2CC(c3ccc(C(F)(F)F)cn3)=NO2)n1C)c1cccnc1 (centres unmarked) [Example I-1-36] | 100% | 100% | 1.84 | 1.97 |  | 70% | 80% | 100% | 90% | 100% |  | 97% | 90% | 99% | 100% |  |  | 90% | Emax at 4 g/ha (Myzus persicae [5]): 100%
